Activity coefficient data for eight compounds are collected here from the NIST ThermoML archive (doi:10.1016/j.jct.2003.08.018).

Numbers after ± are expanded uncertainties.

The data set can be described thus: activity coefficient (dimensionless); of the first substance listed, at infinite dilution; xn = mol fraction of the nth substance listed. The following applies: Liquid, Chromatography, x1 = 0.

For `C=CC=C` [1,3-butadiene] + CCCO, the activity coefficient is, setting by setting: (260.02 K) 4.2 ± 0.19; (280.03 K) 4.15 ± 0.18; (299.99 K) 4.1 ± 0.18; (320.09 K) 4.06 ± 0.18; (340.06 K) 3.98 ± 0.18.
Turning to `C=CCC` [1-butene] + CCCO, the activity coefficient (260.03 K) was determined as 4.13 ± 0.18; the activity coefficient (280.04 K) worked out at 4.12 ± 0.18; the activity coefficient (299.98 K) came out at 4.11 ± 0.18; the activity coefficient (320.03 K) worked out at 4.05 ± 0.18; the activity coefficient (340 K) stood at 4.01 ± 0.18.
Regarding `CC(C)C` [2-methylpropane] + CCCO, the activity coefficient is 5.48 ± 0.24 (259.98 K); 5.37 ± 0.24 (279.94 K); 5.24 ± 0.23 (300.16 K); 5.14 ± 0.23 (320 K); 5.05 ± 0.22 (339.92 K).
In the case of `C=C(C)C` [2-methylpropene] + CCCO, the activity coefficient (259.91 K) was found to be 4.09 ± 0.18; the activity coefficient (279.95 K) stood at 4.08 ± 0.18; the activity coefficient (299.94 K) was found to be 4.04 ± 0.18; the activity coefficient (320.06 K) turned out to be 4 ± 0.18; the activity coefficient (340.16 K) was 3.94 ± 0.17.
On to `C/C=C/C` [(E)-2-butene] + CCCO, for which the activity coefficient reads like this: (260.02 K) 4.2 ± 0.19; (280.03 K) 4.15 ± 0.18; (299.99 K) 4.1 ± 0.18; (320.09 K) 4.06 ± 0.18; (340.06 K) 3.98 ± 0.18.
Take `CCCC` [butane] + CCCO: the activity coefficient is, setting by setting: (260.05 K) 5.17 ± 0.23; (280.05 K) 5.06 ± 0.22; (299.99 K) 5.03 ± 0.22; (320.05 K) 4.88 ± 0.22.
On to `CCC` [propane] + CCCO, for which the activity coefficient was found to be 4.6 ± 0.2 (259.98 K); 4.62 ± 0.2 (279.96 K); 4.64 ± 0.2 (299.96 K); 4.61 ± 0.2 (320.03 K); 4.56 ± 0.2 (339.95 K).
Take `C=CC` [propene] + CCCO: the activity coefficient reads like this: (259.92 K) 3.58 ± 0.16; (279.94 K) 3.61 ± 0.16; (300.03 K) 3.66 ± 0.16; (320.02 K) 3.64 ± 0.16; (340.1 K) 3.64 ± 0.16.
